Experimental data: ChEMBL document CHEMBL1933065, “Synthesis and antifungal evaluation of pyrido[1,2-a]indole-1,4-diones and benzo[f]pyrido[1,2-a]indole-6,11-diones” (2012)
Converted amounts (≈) assume the structure as drawn.

Legend:
Type in all cases: functional
[1] = system: Candida tropicalis; experiment: Antifungal activity against Candida tropicalis Berkout KCCM 50662 after 1 day by two fold broth dilution method; settings: Berkout KCCM 50662, 24 h
[2] = system: Candida albicans; experiment: Antifungal activity against Candida albicans Berkout KCCM 50235 after 1 day by standard two fold broth dilution method; settings: Berkout KCCM 50235, 24 h
[3] = system: Cryptococcus neoformans; experiment: Antifungal activity against Cryptococcus neoformans Berkout KCCM 50564 after 1 day by two fold broth dilution method; settings: Berkout KCCM 50564, 24 h
[4] = system: Aspergillus flavus; experiment: Antifungal activity against Aspergillus flavus KCCM 11899 after 2 days by two fold broth dilution method; settings: KCCM 11899, 48 h
[5] = system: Pichia kudriavzevii; experiment: Antifungal activity against Candida krusei Berkout KCCM 11655 after 1 day by two fold broth dilution method; settings: Berkout KCCM 11655, 24 h
[6] = system: Aspergillus niger; experiment: Antifungal activity against Aspergillus niger KCTC 1231 after 2 days by two fold broth dilution method; settings: KCTC 1231, 48 h

Row | Structure (SMILES) | MIC [1] [µg/mL] | MIC [2] [µg/mL] | MIC [3] [µg/mL] | MIC [4] [µg/mL] | MIC [5] [µg/mL] | MIC [6] [µg/mL]
1 | COc1ccc2c(C(C)=O)c3c(n2c1)C(=O)c1ccccc1C3=O | 3.2 (≈ 10 µM) | 3.2 (≈ 10 µM) | 12.5 (≈ 39.1 µM) | 12.5 (≈ 39.1 µM) | 6.3 (≈ 19.7 µM) | 6.3 (≈ 19.7 µM)
2 | CCOC(=O)c1c2c(n3ccc(CC)cc13)C(=O)C(C)=C(C)C2=O | 12.5 (≈ 38.4 µM) | 6.3 (≈ 19.4 µM) | 6.3 (≈ 19.4 µM) | 6.3 (≈ 19.4 µM) | 6.3 (≈ 19.4 µM) | 12.5 (≈ 38.4 µM)
3 | CCOC(=O)c1c2c(n3cc(C)ccc13)C(=O)C(C)=C(C)C2=O | 12.5 (≈ 40.1 µM) | 12.5 (≈ 40.1 µM) | 3.2 (≈ 10.3 µM) | 12.5 (≈ 40.1 µM) | 12.5 (≈ 40.1 µM) | 25 (≈ 80.3 µM)
4 | COc1ccn2c3c(cc2c1)C(=O)C(C)=C(C)C3=O | 6.3 (≈ 24.7 µM) | 6.3 (≈ 24.7 µM) | 1.6 (≈ 6.27 µM) | 6.3 (≈ 24.7 µM) | 12.5 (≈ 49 µM) | 12.5 (≈ 49 µM)
5 | CCc1ccn2c3c(c(C)c2c1)C(=O)c1ccccc1C3=O | 12.5 (≈ 43.2 µM) | 12.5 (≈ 43.2 µM) | 6.3 (≈ 21.8 µM) | 3.2 (≈ 11.1 µM) | 6.3 (≈ 21.8 µM) | 50 (≈ 173 µM)
6 | CCOC(=O)c1c2c(n3ccc(CC)cc13)C(=O)c1ccccc1C2=O | 50 (≈ 144 µM) | 25 (≈ 72 µM) | 25 (≈ 72 µM) | 50 (≈ 144 µM) | > 100 | > 100
7 | CC(=O)c1c2c(n3ccc(C)cc13)C(=O)C(C)=C(C)C2=O | 6.3 (≈ 22.4 µM) | 1.6 (≈ 5.69 µM) | 1.6 (≈ 5.69 µM) | 3.2 (≈ 11.4 µM) | 12.5 (≈ 44.4 µM) | 3.2 (≈ 11.4 µM)
8 | CCc1ccn2c3c(c(C(=O)OC)c2c1)C(=O)C(C)=C(C)C3=O | 12.5 (≈ 40.1 µM) | 3.2 (≈ 10.3 µM) | 0.8 (≈ 2.57 µM) | 6.3 (≈ 20.2 µM) | 25 (≈ 80.3 µM) | 1.6 (≈ 5.14 µM)
9 | COc1cc[n+](C2=C(Cl)C(=O)C(C)=C(C)C2=O)cc1.[Cl-] | 100 | 25 | 6.3 | 25 | 12.5 | 25
10 | COc1ccn2c3c(c(C)c2c1)C(=O)c1ccccc1C3=O | > 100 | 25 (≈ 85.8 µM) | 25 (≈ 85.8 µM) | 50 (≈ 172 µM) | 50 (≈ 172 µM) | 25 (≈ 85.8 µM)
11 | COC(=O)c1c2c(n3ccc(C)cc13)C(=O)C(C)=C(C)C2=O | 6.3 (≈ 21.2 µM) | 6.3 (≈ 21.2 µM) | 25 (≈ 84.1 µM) | 3.2 (≈ 10.8 µM) | 6.3 (≈ 21.2 µM) | 6.3 (≈ 21.2 µM)
12 | COc1ccn2c3c(cc2c1)C(=O)c1ccccc1C3=O | 25 (≈ 90.2 µM) | 50 (≈ 180 µM) | > 100 | 6.3 (≈ 22.7 µM) | > 100 | 25 (≈ 90.2 µM)
13 | COC(=O)c1c2c(n3cc(C)ccc13)C(=O)c1ccccc1C2=O | > 100 | 25 (≈ 78.3 µM) | 25 (≈ 78.3 µM) | 50 (≈ 157 µM) | 50 (≈ 157 µM) | 25 (≈ 78.3 µM)
14 | CCOC(=O)c1c2c(n3ccc(C)cc13)C(=O)C(C)=C(C)C2=O | 50 (≈ 161 µM) | 6.3 (≈ 20.2 µM) | 12.5 (≈ 40.1 µM) | 6.3 (≈ 20.2 µM) | 6.3 (≈ 20.2 µM) | 3.2 (≈ 10.3 µM)
15 | CCc1ccn2c3c(c(C(=O)OC)c2c1)C(=O)c1ccccc1C3=O | 12.5 (≈ 37.5 µM) | 6.3 (≈ 18.9 µM) | 12.5 (≈ 37.5 µM) | 25 (≈ 75 µM) | 50 (≈ 150 µM) | 3.2 (≈ 9.6 µM)
16 | CCOC(=O)c1c2c(n3ccc(C)cc13)C(=O)c1ccccc1C2=O | 3.2 (≈ 9.6 µM) | 6.3 (≈ 18.9 µM) | 6.3 (≈ 18.9 µM) | 25 (≈ 75 µM) | 12.5 (≈ 37.5 µM) | 12.5 (≈ 37.5 µM)
17 | CCOC(=O)c1c2c(n3ccccc13)C(=O)C(C)=C(C)C2=O | 6.3 (≈ 21.2 µM) | 12.5 (≈ 42 µM) | 6.3 (≈ 21.2 µM) | 3.2 (≈ 10.8 µM) | 3.2 (≈ 10.8 µM) | 6.3 (≈ 21.2 µM)

Row | Structure (SMILES) | MIC [1] [µg/mL] | MIC [2] [µg/mL] | MIC [3] [µg/mL] | MIC [4] [µg/mL] | MIC [5] [µg/mL] | MIC [6] [µg/mL]
18 | Cc1cc[n+](C2=C(Cl)C(=O)c3ccccc3C2=O)cc1.[Cl-] | > 100 | > 100 | > 100 | > 100 | > 100 | 50
19 | CCOC(=O)c1c2c(n3ccc(C#N)cc13)C(=O)C(C)=C(C)C2=O | 3.2 (≈ 9.93 µM) | 3.2 (≈ 9.93 µM) | 6.3 (≈ 19.5 µM) | 3.2 (≈ 9.93 µM) | 6.3 (≈ 19.5 µM) | 6.3 (≈ 19.5 µM)
20 | COC(=O)c1c2c(n3ccc(OC)cc13)C(=O)C(C)=C(C)C2=O | 25 (≈ 79.8 µM) | 6.3 (≈ 20.1 µM) | 1.6 (≈ 5.11 µM) | 25 (≈ 79.8 µM) | 12.5 (≈ 39.9 µM) | 25 (≈ 79.8 µM)
21 | Cc1ccn2c3c(cc2c1)C(=O)c1ccccc1C3=O | 12.5 (≈ 47.8 µM) | 12.5 (≈ 47.8 µM) | 6.3 (≈ 24.1 µM) | 3.2 (≈ 12.2 µM) | 6.3 (≈ 24.1 µM) | 50 (≈ 191 µM)
22 | CC1=C(C)C(=O)C([n+]2ccc(C)cc2)=C(Cl)C1=O.[Cl-] | 6.3 | 12.5 | 3.2 | 6.3 | 6.3 | 25
23 | COc1ccn2c3c(c(C(C)=O)c2c1)C(=O)C(C)=C(C)C3=O | 25 (≈ 84.1 µM) | 25 (≈ 84.1 µM) | 6.3 (≈ 21.2 µM) | 25 (≈ 84.1 µM) | 3.2 (≈ 10.8 µM) | 3.2 (≈ 10.8 µM)
24 | CCOC(=O)c1c2c(n3ccc(OC)cc13)C(=O)c1ccccc1C2=O | 25 (≈ 71.6 µM) | 12.5 (≈ 35.8 µM) | 3.2 (≈ 9.16 µM) | 12.5 (≈ 35.8 µM) | 25 (≈ 71.6 µM) | 6.3 (≈ 18 µM)
25 | CC1=C(C)C(=O)c2c(cc3cc(C)ccn23)C1=O | 6.3 (≈ 26.3 µM) | 12.5 (≈ 52.2 µM) | 6.3 (≈ 26.3 µM) | 1.6 (≈ 6.69 µM) | 12.5 (≈ 52.2 µM) | 12.5 (≈ 52.2 µM)
26 | CCc1ccn2c3c(c(C(C)=O)c2c1)C(=O)c1ccccc1C3=O | > 100 | 50 (≈ 158 µM) | 25 (≈ 78.8 µM) | 12.5 (≈ 39.4 µM) | 50 (≈ 158 µM) | 25 (≈ 78.8 µM)
27 | CCOC(=O)c1c2c(n3ccc(OC)cc13)C(=O)C(C)=C(C)C2=O | 6.3 (≈ 19.2 µM) | 12.5 (≈ 38.2 µM) | 50 (≈ 153 µM) | 3.2 (≈ 9.78 µM) | 6.3 (≈ 19.2 µM) | 3.2 (≈ 9.78 µM)
28 | OC(Cn1cncn1)(Cn1cncn1)c1ccc(F)cc1F [FLUCONAZOLE] | 3.2 (≈ 10.4 µM) | 50 (≈ 163 µM) | 6.3 (≈ 20.6 µM) | 25 (≈ 81.6 µM) | 25 (≈ 81.6 µM) | 6.3 (≈ 20.6 µM)
29 | CCc1ccn2c3c(c(C(C)=O)c2c1)C(=O)C(C)=C(C)C3=O | 12.5 (≈ 42.3 µM) | 6.3 (≈ 21.3 µM) | 6.3 (≈ 21.3 µM) | 3.2 (≈ 10.8 µM) | 3.2 (≈ 10.8 µM) | 1.6 (≈ 5.42 µM)
30 | CCOC(=O)c1c2c(n3cc(C)ccc13)C(=O)c1ccccc1C2=O | 6.3 (≈ 18.9 µM) | 12.5 (≈ 37.5 µM) | 12.5 (≈ 37.5 µM) | 25 (≈ 75 µM) | 25 (≈ 75 µM) | 3.2 (≈ 9.6 µM)
31 | COc1cc[n+](C2=C(Cl)C(=O)c3ccccc3C2=O)cc1.[Cl-] | 50 | > 100 | 50 | > 100 | > 100 | > 100
32 | CC(=O)c1c2c(n3cc(Cl)ccc13)C(=O)C(C)=C(C)C2=O | 12.5 (≈ 41.4 µM) | 6.3 (≈ 20.9 µM) | 6.3 (≈ 20.9 µM) | 3.2 (≈ 10.6 µM) | 3.2 (≈ 10.6 µM) | 1.6 (≈ 5.3 µM)
33 | Nc1nc(=O)[nH]cc1F [FLUCYTOSINE] | 6.3 (≈ 48.8 µM) | 3.2 (≈ 24.8 µM) | 6.3 (≈ 48.8 µM) | 25 (≈ 194 µM) | 6.3 (≈ 48.8 µM) | 6.3 (≈ 48.8 µM)
